{"source": "ChEMBL document CHEMBL4393743", "about": "“Anti-tumor activity evaluation of novel tubulin and HDAC dual-targeting inhibitors” (Bioorg Med Chem Lett, 2019)", "key": {"[1]": {"tested_on": "LoVo", "assay": "Antiproliferative activity against human LoVo cells assessed as cell growth inhibition incubated for 72 hrs by MTT assay", "assay_type": "functional, cell-based"}, "[2]": {"target": "T1, Histone deacetylase 8 (Homo sapiens, UniProt Q9BY41)", "T1 sequence (Q9BY41 whole entry)": "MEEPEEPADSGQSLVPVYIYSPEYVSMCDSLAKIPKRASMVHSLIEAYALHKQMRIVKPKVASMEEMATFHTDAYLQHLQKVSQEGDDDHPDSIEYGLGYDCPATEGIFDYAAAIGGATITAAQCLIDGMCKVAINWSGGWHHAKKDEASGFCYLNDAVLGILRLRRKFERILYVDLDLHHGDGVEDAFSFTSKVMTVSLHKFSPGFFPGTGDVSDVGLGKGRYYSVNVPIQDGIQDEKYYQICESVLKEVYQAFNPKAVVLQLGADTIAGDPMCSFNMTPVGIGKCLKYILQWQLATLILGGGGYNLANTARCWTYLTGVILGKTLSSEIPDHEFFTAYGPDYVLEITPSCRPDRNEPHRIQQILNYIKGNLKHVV", "assay": "Inhibition of HDAC8 (unknown origin) using Boc-Lys(Ac)-AMC as substrate incubated for 60 mins by fluorescence assay"}, "[3]": {"tested_on": "A549", "assay": "Induction of cell cycle arrest in human A549 cells assessed as accumulation at G0/G1 phase at 0.3 uM incubated for 36 hrs by propidium iodide staining based flow cytometry (reference value: 72.51%)", "assay_type": "functional"}, "[4]": {"tested_on": "A549", "assay": "Antiproliferative activity against human A549 cells assessed as cell growth inhibition incubated for 72 hrs by MTT assay", "assay_type": "functional, cell-based", "settings": "A549, 72 h"}, "[5]": {"tested_on": "SGC-7901", "assay": "Antiproliferative activity against human SGC7901 cells assessed as cell growth inhibition incubated for 72 hrs by MTT assay", "assay_type": "functional, cell-based", "settings": "SGC-7901, 72 h"}, "[6]": {"tested_on": "MCF7", "assay": "Antiproliferative activity against human MCF7 cells assessed as cell growth inhibition incubated for 72 hrs by MTT assay", "assay_type": "functional, cell-based", "settings": "MCF7, 72 h"}, "[7]": {"tested_on": "A549", "assay": "Induction of apoptosis in human A549 cells assessed as late apoptotic cells at 0.1 uM incubated for 72 hrs by Annexin V-FITC/propidium iodide-staining based flow cytometric analysis (reference value: 5.69%)", "assay_type": "functional"}, "[8]": {"tested_on": "A549", "assay": "Induction of apoptosis in human A549 cells assessed as live cells at 0.3 uM incubated for 72 hrs by Annexin V-FITC/propidium iodide-staining based flow cytometric analysis (reference value: 89.8%)", "assay_type": "functional"}, "[9]": {"tested_on": "A549", "assay": "Induction of apoptosis in human A549 cells assessed as early apoptotic cells at 0.3 uM incubated for 72 hrs by Annexin V-FITC/propidium iodide-staining based flow cytometric analysis (reference value: 1.8%)", "assay_type": "functional"}, "[10]": {"tested_on": "A549", "assay": "Induction of apoptosis in human A549 cells assessed as necrotic cells at 0.3 uM incubated for 72 hrs by Annexin V-FITC/propidium iodide-staining based flow cytometric analysis (reference value: 2.76%)", "assay_type": "functional"}, "[11]": {"tested_on": "A549", "assay": "Induction of apoptosis in human A549 cells assessed as live cells at 1 uM incubated for 72 hrs by Annexin V-FITC/propidium iodide-staining based flow cytometric analysis (reference value: 89.8%)", "assay_type": "functional"}, "[12]": {"tested_on": "A549", "assay": "Induction of apoptosis in human A549 cells assessed as early apoptotic cells at 1 uM incubated for 72 hrs by Annexin V-FITC/propidium iodide-staining based flow cytometric analysis (reference value: 1.8%)", "assay_type": "functional"}, "[13]": {"tested_on": "A549", "assay": "Induction of apoptosis in human A549 cells assessed as late apoptotic cells at 1 uM incubated for 72 hrs by Annexin V-FITC/propidium iodide-staining based flow cytometric analysis (reference value: 5.69%)", "assay_type": "functional"}, "[14]": {"tested_on": "A549", "assay": "Induction of apoptosis in human A549 cells assessed as late apoptotic cells at 10 uM incubated for 72 hrs by Annexin V-FITC/propidium iodide-staining based flow cytometric analysis (reference value: 5.69%)", "assay_type": "functional"}, "[15]": {"tested_on": "A549", "assay": "Induction of apoptosis in human A549 cells assessed as necrotic cells at 10 uM incubated for 72 hrs by Annexin V-FITC/propidium iodide-staining based flow cytometric analysis (reference value: 2.76%)", "assay_type": "functional"}, "[16]": {"tested_on": "A549", "assay": "Induction of cell cycle arrest in human A549 cells assessed as accumulation at G0/G1 phase at 0.1 uM incubated for 36 hrs by propidium iodide staining based flow cytometry (reference value: 72.51%)", "assay_type": "functional"}, "[17]": {"tested_on": "A549", "assay": "Induction of cell cycle arrest in human A549 cells assessed as accumulation at G2/M phase at 0.1 uM incubated for 36 hrs by propidium iodide staining based flow cytometry (reference value: 10.83%)", "assay_type": "functional"}, "[18]": {"tested_on": "A549", "assay": "Induction of cell cycle arrest in human A549 cells assessed as accumulation at S phase at 0.3 uM incubated for 36 hrs by propidium iodide staining based flow cytometry (reference value: 16.66%)", "assay_type": "functional"}, "[19]": {"tested_on": "A549", "assay": "Induction of cell cycle arrest in human A549 cells assessed as accumulation at G2/M phase at 0.3 uM incubated for 36 hrs by propidium iodide staining based flow cytometry (reference value: 10.83%)", "assay_type": "functional"}, "[20]": {"tested_on": "A549", "assay": "Induction of cell cycle arrest in human A549 cells assessed as accumulation at G0/G1 phase at 1 uM incubated for 36 hrs by propidium iodide staining based flow cytometry (reference value: 72.51%)", "assay_type": "functional"}, "[21]": {"tested_on": "A549", "assay": "Induction of cell cycle arrest in human A549 cells assessed as accumulation at S phase at 1 uM incubated for 36 hrs by propidium iodide staining based flow cytometry (reference value: 16.66%)", "assay_type": "functional"}, "[22]": {"tested_on": "A549", "assay": "Induction of cell cycle arrest in human A549 cells assessed as accumulation at G2/M phase at 1 uM incubated for 36 hrs by propidium iodide staining based flow cytometry (reference value: 10.83%)", "assay_type": "functional"}, "[23]": {"tested_on": "A549", "assay": "Induction of cell cycle arrest in human A549 cells assessed as accumulation at S phase at 10 uM incubated for 36 hrs by propidium iodide staining based flow cytometry (reference value: 16.66%)", "assay_type": "functional"}, "[24]": {"tested_on": "A549", "assay": "Induction of cell cycle arrest in human A549 cells assessed as accumulation at G2/M phase at 10 uM incubated for 36 hrs by propidium iodide staining based flow cytometry (reference value: 10.83%)", "assay_type": "functional"}, "[25]": {"tested_on": "A549", "assay": "Induction of cell cycle arrest in human A549 cells assessed as accumulation at G2/M phase incubated for 36 hrs by propidium iodide staining based flow cytometry", "assay_type": "functional"}, "[26]": {"tested_on": "A549", "assay": "Antimigratory activity in human A549 cells at 5 to 10 uM incubated for 12 hrs in presence of mitomycin by inverted microscopic-based wound healing assay", "assay_type": "functional, cell-based"}, "[27]": {"target": "Histone deacetylase (Homo sapiens) (UniProt Q13547+O15379+Q9UBN7+Q92769+Q9UQL6+Q8WUI4+Q9BY41+Q96DB2+P56524+Q9UKV0+Q969S8)", "settings": "HeLa, at 1 µM", "description": "Inhibition of HDAC in human HeLa cell nuclear extracts at 1 uM"}}, "note": "Activity calls are given as the source filed them. No cut-off for these calls is given here."}
{"compound": "COc1ccc(/C=C(\\C)C(=O)c2cc(OC)c(OC)c(OC)c2)cc1OCCCC(=O)NO", "values": [{"measurement": "IC50", "setting": "[1]", "value": 4880, "unit": "nM"}, {"measurement": "IC50", "setting": "[2]", "value": 1700, "unit": "nM"}, {"measurement": "Activity", "setting": "[3]", "value": 46.23, "unit": "%"}, {"measurement": "IC50", "setting": "[4]", "value": 550, "unit": "nM"}, {"measurement": "IC50", "setting": "[5]", "value": 1060, "unit": "nM"}, {"measurement": "IC50", "setting": "[6]", "value": 7330, "unit": "nM"}, {"measurement": "Activity", "setting": "[7]", "value": 9.41, "unit": "%"}, {"measurement": "Activity", "setting": "[8]", "value": 79.9, "unit": "%"}, {"measurement": "Activity", "setting": "[9]", "value": 7.73, "unit": "%"}, {"measurement": "Activity", "setting": "[10]", "value": 2.19, "unit": "%"}, {"measurement": "Activity", "setting": "[11]", "value": 58.9, "unit": "%"}, {"measurement": "Activity", "setting": "[12]", "value": 6.6, "unit": "%"}, {"measurement": "Activity", "setting": "[13]", "value": 26.4, "unit": "%"}, {"measurement": "Activity", "setting": "[14]", "value": 28.5, "unit": "%"}, {"measurement": "Activity", "setting": "[15]", "value": 8, "unit": "%"}, {"measurement": "Activity", "setting": "[16]", "value": 68.44, "unit": "%"}, {"measurement": "Activity", "setting": "[17]", "value": 9.47, "unit": "%"}, {"measurement": "Activity", "setting": "[18]", "value": 39.96, "unit": "%"}, {"measurement": "Activity", "setting": "[19]", "value": 13.81, "unit": "%"}, {"measurement": "Activity", "setting": "[20]", "value": 16.57, "unit": "%"}, {"measurement": "Activity", "setting": "[21]", "value": 20.54, "unit": "%"}, {"measurement": "Activity", "setting": "[22]", "value": 62.89, "unit": "%"}, {"measurement": "Activity", "setting": "[23]", "value": 16.55, "unit": "%"}, {"measurement": "Activity", "setting": "[24]", "value": 81.88, "unit": "%"}, {"measurement": "Activity", "setting": "[25]", "value": "Dose-dependent effect"}, {"measurement": "Activity", "setting": "[26]", "value": "Active"}, {"measurement": "inhibition", "setting": "[27]", "value": 19.9, "unit": "%"}]}
